For test [1], the system named is Human non-small cell lung cancer NCI-H460 cells. Put plainly: Inhibitory effect on growth of PTX-resistant tumor cell line, parent line (in vitro). Format: cell-based. The following applies: 96 hours culture, WST-8. The procedure:
Each compound of the present invention was studied for its effect on the growth of a tumor cell line having a PTX resistance mechanism different from that attributed to the high expression of P-glycoprotein. Human non-small cell lung cancer NCI-H460 cells were exposed to 1 nM paclitaxel (PTX) and 10 μM verapamil at the same time. Only the PTX concentration was increased to 2, 3, 4, 5, and 7 nM in order over approximately 6 months to establish PTX-resistant H460/PV2-7 cells (PV2-7). […] As for the PTX resistance mechanism different from that attributed to the high expression of P-glycoprotein, an isotype called Class III β-tubulin (TUBB3), which is one isotype of […], has been reported to be highly expressed in PTX-resistant established lines in vitro or in clinical samples from patients having resistance to PTX therapy.
The PV2-7 cells and the parent line NCI-H460 cells were suspended in a medium and inoculated at a cell density of 1000 cells/50 μL/well to a 96-well plate. After overnight culture, each compound diluted 2-fold (final concentration) was added thereto at a concentration of 50 μL/well, and the cells were cultured for 96 hours. After the completion of culture, WST-8 (Seikagaku Corp.) was added thereto at a concentration of 10 μL/well, and the cells were cultured at 37° C. for approximately 1 hour under 5% CO2 conditions, followed by measurement of absorbance at 450 nm.

In test [2] the test system is Human uterus cancer MES-SA cells. Put plainly: Inhibitory effect on growth of multidrug-resistant cell line, parent line (in vitro). The following applies: 48 hours culture, WST-8. Type of test: cell-based. From the text:
(§1) Each compound of the present invention was studied for its effect on the growth of a multidrug-resistant cell line. A drug efflux pump called P-glycoprotein is well known to be involved in the drug resistance mechanism of the multidrug-resistant line MES-SA/Dx5 used in this experiment. Accordingly, in this experiment, paclitaxel and vincristine, which are proven substrates of P-glycoprotein, were used as control drugs. Human uterus cancer MES-SA cells and their multidrug-resistant line MES-SA/Dx5 cells were suspended in a medium and inoculated at a cell density of 2000 cells/50 μL/well to a 96-well plate. After overnight culture, each test sample diluted with a medium was added thereto at a concentration of 50 μL/well, and the cells were further cultured for 48 hours. After the completion of culture, WST-8 was added thereto at a concentration of 10 μL/well, and the cells were cultured at 37° C. for approximately 1 hour under 5% CO2 conditions, followed by measurement of absorbance at a wavelength of 450 nm. […] The resistance rate was calculated according to the following expression:
(§2) Resistance rate=IC50 value (MES-SA/Dx5)/IC50 value (MES-SA)
On the technique in general: Tetrazolium dyes change colour on reduction, which living cells bring about.

Test [3] concerns multidrug-resistant line MES-SA/Dx5 cells. Put plainly: Inhibitory effect on growth of multidrug-resistant cell line (in vitro). The note with it: for IC50: Homo sapiens, MES-SA/Dx5 cells, 48 hours culture, WST-8; for Resistance rate: IC50 value (MES-SA/Dx5)/IC50 value (MES-SA). Format: cell-based, human.
Description: as §1, §2

In test [4] the test system is human non-small cell lung cancer A549 cells. Put plainly: Inhibitory effect on growth of human cancer cells (in vitro), WST-8. Type of test: cell-based. The following applies: Homo sapiens, A549, 96 h, 96 hours culture. A digest of the protocol: (§3)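 Cells seeded at 1000 cells/well in RPMI1640 with 10% FBS, compounds added after overnight culture, then 96 h exposure. Viability by WST-8, about 1 h at 37 °C, 5% CO2, absorbance read at 450 nm.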

Test [5] concerns human colorectal cancer HCT116 cells. The test is described as above. Type of test: cell-based. The following applies: Homo sapiens, HCT-116, 96 h, 96 hours culture. An outline of the steps:
as §3

In test [6] the test system is human colorectal cancer HT-29 cells. Described as above. The following applies: Homo sapiens, HT-29, 96 h, 96 hours culture, read-out: IC50 (nM) HT29. Format: cell-based. A digest of the protocol:
as §3

Test [7] relates to human lung cancer NCI-H460 xenograft tumor. Put plainly: Antitumor effect on growth of human lung cancer NCI-H460 xenograft tumor (in vivo). Also noted: species or system BALB/c nude mice. The following applies: Mus musculus, NCI-H460, iv, 528 h, tail vein, excised tumor weight Day 22, read-out: Inhibition Rate (%). The procedure: Each compound of the present invention was studied for its in vivo antitumor effect using human lung cancer NCI-H460 cell-transplanted mice. An NCI-H460 cell suspension containing 2×10^6 cells was subcutaneously transplanted in an amount of 0.1 mL/mouse to the left groin areas of 6-week-old male BALB/c nude mice. The mice were further raised for approximately 1 week to 10 days and divided into groups (4 mice per group) having equal estimated tumor volumes at the point in time when the tumor size reached approximately 100 to 200 mm^3 (Day 1). Each administration sample was administered at a dose of 10 mL/kg into the tail vein of the mice. The dose and administration schedule of each compound were as described in Table 3. At Day 22, tumor was excised from each mouse. The tumor growth inhibition rate (IR: Inhibition Rate) was calculated from the weight of the excised tumor according to the expression shown below. The Dunnett's test was used in the significant difference test.
Tumor growth inhibition rate (Inhibition Rate, %)=(1−(Excised tumor weight of the administration group)/(Excised tumor weight of the control group))×100
Background: Xenograft models place foreign cells or tissue in a host animal.

In test [8] the test system is PV2-7 xenograft tumor. Kind of test: Antitumor effect on growth of PV2-7 xenograft tumor (in vivo). Set-up: species or system BALB/c nude mice. The following applies: tail vein, once a week, three times in total (Days 1, 8, and 15); FIG. 5.
Description: The mice were further raised for approximately 1 week to 10 days and divided into groups (4 or 5 mice per group) having equal estimated tumor volumes at the point in time when the tumor size reached approximately 100 to 200 mm^3 (Day 1). Each administration sample was administered at a dose of 10 mL/kg into the tail vein of the mice. In an administration schedule, each sample was administered once a week, three times in total (Days 1, 8, and 15).
The mark [9] stands for this setting: Days 1, 3, 5, 8, 10, 12, 15, 17, 19.

The term IC50 denotes the concentration that gives 50% inhibition.

Consider `CO[C@H]1C(=O)[C@]2(C)[C@@H](OC)C[C@H]3OC[C@@]3(OC(C)=O)[C@H]2[C@H](OC(=O)c2ccccc2)[C@]2(O)C[C@H](OC(=O)[C@H](O)[C@@H](NC(=O)OC(C)(C)C)c3ccccc3)C(C)=C1C2(C)C` [Cabazitaxel, cabazitaxel], for which the IC50 in test [1] came out at 1.3 nM.
As to `Cc1[nH]c(-c2nnn(CCO)n2)c(C)c1C(=O)c1cccc(Br)c1` [Compound 102, (3-bromophenyl)(5-(2-(2-hydroxyethyl)-2H-tetrazol-5-yl)-2,4-dimethyl-1H-pyrrol-3-yl)methanone], the IC50 in test [2] is 3.8 nM; in test [3], 4.3 nM; in test [4], 19.3 nM; in test [5], 9.5 nM; in test [6], 8.7 nM. In addition, the Resistance rate in test [3] stood at 1.1. The inhibition in vivo at 12.5 mg/kg in test [7] (setting [9]) was 43.4%. Further, the inhibition in vivo at 25 mg/kg in test [7] (25 mg/kg, Days 1, 3, 5, 8, 10, 12, 15, 17, 19) stood at 61.1%. Also, the inhibition in vivo at 37.5 mg/kg in test [7] (37.5 mg/kg, Days 1, 3, 5, 8, 10, 12, 15, 17, 19) came to 80.5%. In addition, the inhibition in vivo at 40 mg/kg in test [7] (40 mg/kg, Days 1, 5, 9) turned out to be 96.5%.
As to `COc1ccc(C(=O)c2c(C)[nH]c(-c3nnn(CCO)n3)c2C)cc1Br` [Compound 110, (3-bromo-4-methoxyphenyl)(5-(2-(2-hydroxyethyl)-2H-tetrazol-5-yl)-2,4-dimethyl-1H-pyrrol-3-yl)methanone], the half-maximal inhibitory concentration (IC50) was 5.5 nM in test [2]; 22.7 nM in test [3]; 39.3 nM in test [4]; 14.2 nM in test [5]; 8.2 nM in test [6]. The Resistance rate in test [3] was 4.2. In addition, in test [7] (setting [9]), the inhibition in vivo at 12.5 mg/kg was 55.8%. Besides, the inhibition in vivo at 18.75 mg/kg in test [7] (18.75 mg/kg, Days 1, 3, 5, 8, 10, 12, 15, 17, 19) was 77.4%.
Consider `Cc1c(-c2nnn(CCO)n2)[nH]c(CO)c1C(=O)c1cccc(Br)c1` [Compound 121, (3-bromophenyl)(5-(2-(2-hydroxyethyl)-2H-tetrazol-5-yl)-2-(hydroxymethyl)-4-methyl-1H-pyrrol-3-yl)methanone], for which the 50% inhibitory concentration (IC50) stood at 76.2 nM in test [1]; 49.8 nM in test [2]; 88.4 nM in test [3]; 122 nM in test [4]; 43.5 nM in test [5]; 43.8 nM in test [6]. The same compound came in with a Resistance rate in test [3] of 1.8. Also, the inhibition in vivo at 60 mg/kg in test [7] (60 mg/kg, Days 1, 3, 5, 8, 10, 12, 15, 17, 19) came to 60.6%. Also, in test [7] (120 mg/kg, Days 1, 8, 15), the inhibition in vivo at 120 mg/kg is 75.5%.
In the case of `Cc1c(-c2nnn(CCO)n2)[nH]c(C(C)O)c1C(=O)c1cccc(Br)c1` (stereo not shown) [Compound 123, (3-bromophenyl)(2-(1-hydroxyethyl)-5-(2-(2-hydroxyethyl)-2H-tetrazol-5-yl)-4-methyl-1H-pyrrol-3-yl)methanone], the IC50 in test [1] is 68.8 nM; in test [2] it was 63.3 nM; in test [3] it was 135 nM; in test [4], 326 nM; in test [5], 46.1 nM; in test [6], 39.5 nM. In test [3], this compound yielded a Resistance rate of 2.1. Besides, the inhibition in vivo at 50 mg/kg in test [7] (50 mg/kg, Days 1, 3, 5, 8, 10, 12, 15, 17, 19) was determined as 58.2%. Besides, in test [7] (100 mg/kg, Days 1, 5, 9), the inhibition in vivo at 100 mg/kg stood at 56.5%.
For `CNC(=O)c1[nH]c(-c2nnn(CCO)n2)c(C)c1C(=O)c1cccc(Br)c1` [Compound 142, 3-(3-bromobenzoyl)-5-(2-(2-hydroxyethyl)-2H-tetrazol-5-yl)-N,4-dimethyl-1H-pyrrole-2-carboxamide], the concentration for half-maximal inhibition (IC50) came to 374 nM in test [1]; 238 nM in test [2]; 656 nM in test [3]; 257 nM in test [4]; 194 nM in test [5]; 176 nM in test [6]. Further, the Resistance rate in test [3] was determined as 2.8. In test [7] (140 mg/kg, Days 1, 8, 15), the inhibition in vivo at 140 mg/kg was determined as 73.8%.
For the compound `COc1ccc(C(=O)c2c(C)[nH]c(-c3nnc(C4CC4)o3)c2C)cc1Br` [Compound 198, (3-bromo-4-methoxyphenyl) (5-(5-cyclopropyl-1,3,4-oxadiazol-2-yl)-2,4-dimethyl-1H-pyrrol-3-yl)methanone], the IC50 in test [2] amounted to 0.21 nM; in test [3] it was 0.28 nM; in test [4], 1.8 nM; in test [5] it was 0.9 nM; in test [6], 0.3 nM. In test [3], the Resistance rate is recorded as 1.3. The inhibition in vivo at 10 mg/kg in test [7] (10 mg/kg, Days 1, 3, 8, 10, 12, 15, 17, 19) turned out to be 51.6%.
Consider `CC(=O)O[C@@]12CO[C@@H]1C[C@H](O)[C@@]1(C)C(=O)[C@H](O)C3=C(C)[C@@H](OC(=O)[C@H](O)[C@@H](NC(=O)OC(C)(C)C)c4ccccc4)C[C@@](O)([C@@H](OC(=O)c4ccccc4)[C@H]21)C3(C)C` [Docetaxel, docetaxel], for which the IC50 in test [1] was found to be 1.5 nM.
On to `CC(=O)O[C@H]1C(=O)[C@@]2(C)[C@H]([C@H](OC(=O)c3ccccc3)[C@]3(O)C[C@H](OC(=O)[C@H](O)[C@@H](NC(=O)c4ccccc4)c4ccccc4)C(C)=C1C3(C)C)[C@]1(OC(C)=O)CO[C@@H]1C[C@@H]2O` [Paclitaxel, paclitaxel, reference compound], for which the figures for the IC50 in test [1], in test [2] and in test [3] were 3.5 nM, 15.2 nM and 3700 nM, respectively. In test [3], this compound returned a Resistance rate of 243.3. Also, the “antitumor effect on PV2-7 cell-transplanted mice” value in test [8] is on record as “hardly effective”.
As to `CC[C@]1(O)C[C@H]2CN(CCc3c([nH]c4ccccc34)[C@@](C(=O)OC)(c3cc4c(cc3OC)N(C=O)[C@H]3[C@@](O)(C(=O)OC)[C@H](OC(C)=O)[C@]5(CC)C=CCN6CC[C@]43[C@@H]65)C2)C1` [Vincristine, vincristine, reference compound], the IC50 in test [2] worked out at 36.2 nM. Further, in test [3], the IC50 came to 2440 nM and the Resistance rate worked out at 67.5.
